Assay results published in publication PMC9736157 (Molecules, 2022).
Like-named read-outs stand apart in the source and are kept apart here.

Legend:
B-RAF (V600E) = target: T1, B-RAF (V600E) (Homo sapiens, UniProt P15056, V600E); experiment: BRAF^V600E inhibition assay (B-RAF (V600E) Kinase Assay Kit, Kinase-Glo MAX); assay type: biochemical; conditions: isolated BRAF^V600E, ATP 10 μM, 30 °C, 45 min; three experiments in duplicate; read-out: BRAF (V600E) Kinase Activity IC50 (nM ± SEM)
T1 construct: purchased BPS Bioscience
Procedure: In a 96-well plate, the different inhibitor solutions in DMSO were mixed with Buffer, ATP (10 μM) and Raf substrate. […] After a 15 min delay to equilibrate plate temperature, 50 μL of Kinase-Glo Max was added in each well, and the luminescence was measured according to supplier’s instruction. The results, reported as IC50 ± S.E.M., were calculated with GrapPad Prism 7 and derive from three different experiments run in duplicate.

A375 melanoma cell line = experiment: Antiproliferative activity, CellTiter-Glo, A375; assay type: cell-based; conditions: Homo sapiens, A-375, A375, 72 h
Procedure: Based on the previous preliminary tests, we sought to investigate the ability of synthesized compounds 5–15 and reference 1 in inhibiting the proliferation of BRAF^V600E mutant cancer cells. A first screening was conducted in A375 melanoma cell lines (Table 1, Figure S2). Encorafenib was employed for comparison.
(§1) The ability of compounds 5, 10, 11, 15–selected based on their chemical diversity–to inhibit cell proliferation was then tested both in A375 and in Colo205 cancer cell lines. […] P5B was obtained by joining the BRAF inhibitor BI 882370 to pomalidomide through a five PEG unit spacer (Figure S3). In compound P5B, the linker length was of 17 atoms, the same length of the spacer used to generate our compound 10. A375 and Colo205 cells were treated for 72 h with compounds 5, 10, 11, 15, and P5B, and the antiproliferative activity was measured by a luminescent ATP-based assay, which determines the number of viable cells based on their metabolic activity. […] However, P5B was more efficient in inhibiting tumor cell viability in comparison with the other selected compounds.
(§2) Cell viability was evaluated by means of CellTiter-Glo Luminescent Assay (Promega), which allows users to measure the ATP in the cell supernatant. The assay was performed according to manufacturer’s instructions. In brief, 4.10^3 A375 or Colo205 were seeded into 96-well plates and allowed to adhere at the wall overnight. Cells were treated for 72 h with BRAF inhibitor compounds. Then, 90 µL of the cell culture medium was transferred in a white 96-well plate, to which 10 µL of CellTiter-Glo was added before measurement of luminescence. Luminescence was measured by the SPARK M10 (Tecan, Männedorf, Switzerland) plate reader.

Colo205 cell line = experiment: Antiproliferative activity, CellTiter-Glo, Colo205; assay type: cell-based; conditions: Homo sapiens, COLO 205; Colo205, 72 h (Figure 6b); read-out: Antiproliferative activity IC50 (nM ± SEM)
Procedure: as §1, §2

[1] = first screening (Table 1), read-out: Antiproliferative Activity IC50 ± SEM
[2] = second set of experiments (Figure 6a), read-out: Antiproliferative activity IC50 (nM ± SEM)

T1 sequence (P15056 whole entry V600E): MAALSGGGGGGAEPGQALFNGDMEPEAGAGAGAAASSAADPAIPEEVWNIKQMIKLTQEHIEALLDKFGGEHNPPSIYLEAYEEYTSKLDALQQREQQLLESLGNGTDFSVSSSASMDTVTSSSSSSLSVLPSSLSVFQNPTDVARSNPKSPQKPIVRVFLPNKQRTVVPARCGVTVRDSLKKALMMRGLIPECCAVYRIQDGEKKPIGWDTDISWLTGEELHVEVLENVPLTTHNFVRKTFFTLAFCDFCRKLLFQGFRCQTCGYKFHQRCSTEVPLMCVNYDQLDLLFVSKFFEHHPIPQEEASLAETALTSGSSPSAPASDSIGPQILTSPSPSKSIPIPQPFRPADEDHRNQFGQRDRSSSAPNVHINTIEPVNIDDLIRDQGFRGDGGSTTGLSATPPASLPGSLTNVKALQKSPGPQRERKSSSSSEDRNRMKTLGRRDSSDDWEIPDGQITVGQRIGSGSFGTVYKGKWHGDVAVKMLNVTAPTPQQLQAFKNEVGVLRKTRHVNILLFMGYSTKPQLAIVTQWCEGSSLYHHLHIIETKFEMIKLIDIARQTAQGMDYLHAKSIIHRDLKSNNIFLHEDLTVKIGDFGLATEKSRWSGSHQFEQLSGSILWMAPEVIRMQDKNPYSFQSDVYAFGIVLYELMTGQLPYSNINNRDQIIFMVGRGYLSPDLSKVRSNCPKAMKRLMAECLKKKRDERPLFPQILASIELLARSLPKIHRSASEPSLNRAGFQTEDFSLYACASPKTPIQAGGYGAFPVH

Compound	IC50 (B-RAF (V600E))	IC50 (A375 melanoma cell line; [1])	IC50 (A375 melanoma cell line; [2])	IC50 (Colo205 cell line)
CC(C)n1cc(-c2ccnc(NC[C@H](C)NC(=O)CCCNc3cccc4c3C(=O)N(C3CCC(=O)NC3=O)C4=O)n2)c(-c2cc(Cl)cc(NS(C)(=O)=O)c2F)n1 (stereo partly drawn) [Compound 5, N-((S)-1-((4-(3-(5-chloro-2-fluoro-3-(methylsulfonamido)phenyl)-1-isopropyl-1H-pyrazol-4-yl)pyrimidin-2-yl)amino)propan-2-yl)-4-((2-(2,6-dioxopiperidin-3-yl)-1,3-dioxoisoindolin-4-yl)amino)butanamide]	61 ± 10 nM	2740 ± 71 nM	1320 ± 304 nM	280 ± 24 nM
CC(C)n1cc(-c2ccnc(NC[C@H](C)NC(=O)CCOCCOCCn3cc(COCCC(=O)Nc4cccc5c4C(=O)N(C4CCC(=O)NC4=O)C5=O)nn3)n2)c(-c2cc(Cl)cc(NS(C)(=O)=O)c2F)n1 (stereo partly drawn) [Compound 12, N-((S)-1-((4-(3-(5-chloro-2-fluoro-3-(methylsulfonamido)phenyl)-1-isopropyl-1H-pyrazol-4-yl)pyrimidin-2-yl)amino)propan-2-yl)-3-(2-(2-(4-((3-((2-(2,6-dioxopiperidin-3-yl)-1,3-dioxoisoindolin-4-yl)amino)-3-oxopropoxy)methyl)-1H-1,2,3-triazol-1-yl)ethoxy)ethoxy)propanamide]	40 ± 4 nM	732 ± 16 nM	–	–
CC(C)n1cc(-c2ccnc(NC[C@H](C)NC(=O)CCOCCOCCOCC(=O)Nc3cccc4c3CN(C3CCC(=O)NC3=O)C4=O)n2)c(-c2cc(Cl)cc(NS(C)(=O)=O)c2F)n1 (stereo partly drawn) [Compound 14, N-((S)-1-((4-(3-(5-chloro-2-fluoro-3-(methylsulfonamido)phenyl)-1-isopropyl-1H-pyrazol-4-yl)pyrimidin-2-yl)amino)propan-2-yl)-3-(2-(2-(2-((2-(2,6-dioxopiperidin-3-yl)-1-oxoisoindolin-4-yl)amino)-2-oxoethoxy)ethoxy)ethoxy)propenamide]	88 ± 17 nM	1046 ± 0.75 nM	–	–
Cc1ncsc1-c1ccc(CNC(=O)[C@@H]2C[C@@H](O)CN2C(=O)[C@@H](NC(=O)COCCOCCOCCC(=O)N[C@@H](C)CNc2nccc(-c3cn(C(C)C)nc3-c3cc(Cl)cc(NS(C)(=O)=O)c3F)n2)C(C)(C)C)cc1 [Compound 15, (2S,4R)-1-((2S,17S)-2-(tert-butyl)-18-((4-(3-(5-chloro-2-fluoro-3-(methylsulfonamido)phenyl)-1-isopropyl-1H-pyrazol-4-yl)pyrimidin-2-yl)amino)-17-methyl-4,15-dioxo-6,9,12-trioxa-3,16-diazaoctadecanoyl)-4-hydroxy-N-(4-(4-methylthiazol-5-yl)benzyl)pyrrolidine-2-carboxamide]	78 ± 9 nM	3380 ± 172 nM	3830 ± 784 nM	1230 ± 543 nM
COCCOCCOCCOCCC(=O)N[C@@H](C)CNc1nccc(-c2cn(C(C)C)nc2-c2cc(Cl)cc(NS(C)(=O)=O)c2F)n1 [Compound 54, (S)-N-(1-((4-(3-(5-chloro-2-fluoro-3-(methylsulfonamido)phenyl)-1-isopropyl-1H-pyrazol-4-yl)pyrimidin-2-yl)amino)propan-2-yl)-2,5,8,11-tetraoxatetradecan-14-amide]	80 ± 7 nM	–	–	–
COC(=O)N[C@@H](C)CNc1nccc(-c2cn(C(C)C)nc2-c2cc(Cl)cc(NS(C)(=O)=O)c2F)n1 [encorafenib (1), encorafenib, reference compound]	–	< 50 nM	–	–

More lines, now with the values ahead:

IC50 (B-RAF (V600E))	IC50 (A375 melanoma cell line; [1])	IC50 (A375 melanoma cell line; [2])	IC50 (Colo205 cell line)	Compound
52 ± 12 nM	406.1 ± 2.4 nM	–	–	CC(C)n1cc(-c2ccnc(NC[C@H](C)NC(=O)CCOCCNc3cccc4c3C(=O)N(C3CCC(=O)NC3=O)C4=O)n2)c(-c2cc(Cl)cc(NS(C)(=O)=O)c2F)n1 (stereo partly drawn) [Compound 6, N-((S)-1-((4-(3-(5-chloro-2-fluoro-3-(methylsulfonamido)phenyl)-1-isopropyl-1H-pyrazol-4-yl)pyrimidin-2-yl)amino)propan-2-yl)-3-(2-((2-(2,6-dioxopiperidin-3-yl)-1,3-dioxoisoindolin-4-yl)amino)ethoxy)propanamide]
66 ± 15 nM	520 ± 80.5 nM	–	–	CC(C)n1cc(-c2ccnc(NC[C@H](C)NC(=O)CCOCCOCCNc3cccc4c3C(=O)N(C3CCC(=O)NC3=O)C4=O)n2)c(-c2cc(Cl)cc(NS(C)(=O)=O)c2F)n1 (stereo partly drawn) [Compound 7, N-((S)-1-((4-(3-(5-chloro-2-fluoro-3-(methylsulfonamido)phenyl)-1-isopropyl-1H-pyrazol-4-yl)pyrimidin-2-yl)amino)propan-2-yl)-3-(2-(2-((2-(2,6-dioxopiperidin-3-yl)-1,3-dioxoisoindolin-4-yl)amino)ethoxy)ethoxy)propanamide]
67 ± 16 nM	2000 ± 31.8 nM	–	–	CC(C)n1cc(-c2ccnc(NC[C@H](C)NC(=O)CCOCCOCCOCCOCCNc3cccc4c3C(=O)N(C3CCC(=O)NC3=O)C4=O)n2)c(-c2cc(Cl)cc(NS(C)(=O)=O)c2F)n1 (stereo partly drawn) [Compound 9, N-((S)-1-((4-(3-(5-chloro-2-fluoro-3-(methylsulfonamido)phenyl)-1-isopropyl-1H-pyrazol-4-yl)pyrimidin-2-yl)amino)propan-2-yl)-1-((2-(2,6-dioxopiperidin-3-yl)-1,3-dioxoisoindolin-4-yl)amino)-3,6,9,12-tetraoxapentadecan-15-amide]
58 ± 19 nM	4100 ± 71.5 nM	–	–	CC(C)n1cc(-c2ccnc(NC[C@H](C)NC(=O)CCOCCOCCn3cc(COCCOCCNc4cccc5c4C(=O)N(C4CCC(=O)NC4=O)C5=O)nn3)n2)c(-c2cc(Cl)cc(NS(C)(=O)=O)c2F)n1 (stereo partly shown) [Compound 13]
